Measured values taken from US4647672A, “Ascorbate 2-polyphosphate esters and method of making same” (priority 1985, dated 1987).
Where two headings read alike, the source gives them in different places. Values belong to the compound of their own block, whether it stands above or below them.

Columns and labels:
fish = fish and possibly crustacea; Halver et al 1975; cited from earlier work
guinea pigs [1] = settings: Machlin 1976; cited from earlier work
monkeys = settings: Machlin et al; cited from earlier work
[2] = tested on: Acid Phosphatase from Potato; experiment: in vitro; format: in vitro ADME
Experimental: (§1) It has also been confirmed that behavior of the 2-monophosphate ester of L-ascorbate, ASMP, towards the enzyme phosphatase is different than the behavior of the 2-triphopsphate ester, ASTP.
(§2) ^1 Enzymolysis was done at 25° by stirring 200 micromoles of
(§3) magnesium Lascorbate 2phosphate or ammonium Lascorbate 2triphosphate in
(§4) 100 ml of 0.05 M acetate buffer (pH 5.0) containing about 400 mg of
(§5) bakers' compressed yeast and 2 units of phosphatase (1 unit activity
(§6) hydrolyzes 1 μmole of pnitrophenyl phosphate at pH 4.8 and 37°)
(§7) At a given reaction time, an aliquot (5 ml) was removed, mixed with 5.0 m
(§8) of 12% trichloroacetic acid/4% metaphosphoric acid, and the mixture
(§9) filtered. An aliquot (5 ml) of the filtrate was titrated with
(§10) 2,6dichlorophenolindophenol to a pink endpoint. Blank solutions contained
(§11) all reagents except phosphatase.

in vitro [3] = format: in vitro ADME, potato; settings: potato, ph 5.0 acetate buffer, pH 5
Experimental: as §1, §2, §3, §4, §5, §6, §7, §8, §9, §10, §11

physchem = format: physicochemical; settings: for Stability (% Remaining) when reacted with aqueous hydrogen peroxide / remaining at 0.25 h / remaining at 1 h / remaining at 24 h / remaining at 72 h / remaining at 144 h / remaining at 192 h / remaining at 336 h: tris buffer, hydrogen peroxide; for Stability (% Remaining) when reacted with aqueous hydrogen peroxide: pH 7; for remaining at 0.25 h / remaining at 1 h / remaining at 24 h / remaining at 72 h / remaining at 144 h / remaining at 192 h / remaining at 336 h: pH 7, Stability (% Remaining) when reacted with aqueous hydrogen peroxide
Experimental: When ASTP and ASMP were treated under identical conditions (pH 7, 25° C.) with hydrogen peroxide for 8 days, 77% ASTP remained unreacted while 44% ASMP remained. After 14 days oxidation, 0% ASMP remained compared to 55% ASTP.
^1 Reaction mixture contained 0.05 mL of 30% aqueous hydrogen peroxid
and 200 micromoles of Lascorbate or its 2phosphorylated derivative in 100
ml of 0.05 TRIS buffer (pH 7.0). At a given reaction time, an aliquot (1
ml) of a reaction mixture containing the 2phosphorylated ester was dilute
10 fold with TRIS buffer at pH 7, and the uv absorbance of the mixture
read at 258 nm. To follow loss of Lascorbic acid, an aliquot (1 ml) of th
reaction mixture was diluted with 2% metaphosphoric acid, and the uv
absorbance read at 245 nm.

[4] = Blank reactions without phosphatase: acid-catalyzed release of L-ascorbate in pH 5.0 acetate buffer; format: physicochemical; settings: 0.05 m acetate buffer, 25°, read-out: L-Ascorbate Released (%), Blank; for degraded at 0.25 h: reaction time 0.25 h; for degraded at 0.5 h: reaction time 0.50 h; for degraded at 1 h: reaction time 1.0 h; for degraded at 2 h: reaction time 2.0 h; for degraded at 3 h: reaction time 3.0 h; for degraded at 4 h: reaction time 4.0 h; for degraded at 8 h: reaction time 8.0 h; for degraded at 20 h: reaction time 20.0 h; for degraded at 5 h: reaction time 5.0 h
[5] = tested on: phosphatase present in wheat flour; experiment: in vitro; format: in vitro ADME
Experimental: (§12) When stirred with a dilute suspension of wheat flour at 25° C., ASMP was comletely hydrolyzed in 1 hr. whereas ASTP required approximately 10-20 hr. for 95% hydrolysis.
(§13) ^1 Enzymolysis and titration of Lascorbate released were done as
(§14) described in the footnote to Table I, except the phosphatase was that
(§15) present in wheat flour. Two grams of wheat flour was used in the 100 ml
(§16) enzymolysis reaction mixture.

in vitro [6] = format: in vitro ADME, wheat; settings: wheat, wheat flour suspension, pH 5
Experimental: as §12, §13, §14, §15, §16

[7] = Stabilization of L-ascorbate against autoxidation in aqueous medium at pH 7; format: physicochemical
guinea pigs [8] = experiment: Guinea pig feeding study of vitamin C activity; format: in vivo; settings: 15.4 mg per kg of body weight per day orally, equivalent to 5.0 mg of L-ascorbic acid
Experimental: English short-hair guinea pigs were housed individually in a cage and fed Purina guinea pig ration during a one-week acclimation period. The young pigs (190-250 g) were divided into four groups of 10 animals each. One group was fed a diet devoid of vitamin C (Reid-Briggs guinea pig diet, U.S. Biochemicals, Cleveland, Ohio); the second group received the same diet but supplemented with 5.0 mg of L-ascorbic acid per kg of body weight per day; the third group received 15.4 mg of purified tetrasodium L-ascorbate 2-triphosphate dihydrate (L-ascorbate 2-tri-PO4, purified) per kg of body weight per day; and the fourth group received 15.4 mg of tetra-sodium L-ascorbate 2-triphosphate dihydrate (L-ascorbate 2-tri-PO4, reaction mixture) in admixture with the by-products of the reaction mixture as set forth in Example I, except the small amount of unreacted L-ascorbic acid in the reaction mixture was destroyed by O2 -oxidation (the 15.4 mg of tetrasodium L-ascorbate 2-triphosphate dihydrate is equivalent to 5.0 mg of L-ascorbic acid). The vitamin C was administered orally with a calibrated syringe from solutions kept at 5° C., except the L-ascorbic acid solution was prepared fresh daily. The weights of the animals were recorded daily, and the arithmetic means of each group were calculated and compared in the FIGURE.

[9] = pH 5, Table I, all reagents except phosphatase
[10] = pH 5, Table II, blank without phosphatase (wheat flour)

SMILES: O=C1O[C@H]([C@@H](O)CO)C(O)=C1OS(=O)(=O)O [2-sulfate ester]
vitamin C activity (fish): it is in fish
vitamin C activity (guinea pigs [1]): not an active source of vitamin C
vitamin C activity (monkeys): not an active source of vitamin C

rate of release of L-ascorbic acid when treated with purified phosphatase from potato (comparison in words) [2]: much faster than ASTP
metabolised at 0.25 h (in vitro [3]): 9.3%
metabolised at 0.5 h (in vitro [3]): 18.6%
metabolised at 1 h (in vitro [3]): 35.5%
metabolised at 2 h (in vitro [3]): 60.5%
metabolised at 3 h (in vitro [3]): 77.3%
metabolised at 4 h (in vitro [3]): 88.4%
metabolised at 8 h (in vitro [3]): 100%
metabolised at 20 h (in vitro [3]): 100%
Stability (% Remaining) when reacted with aqueous hydrogen peroxide (physchem; 192 h): 44.1%
remaining at 0.25 h (physchem): 98.7%
remaining at 1 h (physchem): 97.1%
remaining at 24 h (physchem): 93.9%
remaining at 72 h (physchem): 77.7%
remaining at 144 h (physchem): 64.1%
remaining at 192 h (physchem): 44%
remaining at 336 h (physchem): 0%
degraded at 0.25 h [4, 9]: 0%
degraded at 0.5 h [4, 9]: 0%
degraded at 1 h [4, 9]: 0%
degraded at 2 h [4, 9]: 2.9%
degraded at 3 h [4, 9]: 4.6%
degraded at 4 h [4, 9]: 4.6%
degraded at 8 h [4, 9]: 8.1%
degraded at 20 h [4, 9]: ~15%
degraded at 0.25 h [4, 10]: 0%
degraded at 0.5 h [4, 10]: 0%
degraded at 1 h [4, 10]: 0%
degraded at 2 h [4, 10]: 2.9%
degraded at 3 h [4, 10]: 4.6%
degraded at 4 h [4, 10]: 4.6%
degraded at 5 h [4, 10]: 5.8%
degraded at 20 h [4, 10]: 14.5%
time to complete hydrolysis [5]: 1 h
metabolised at 0.25 h (in vitro [6]): 47.1%
metabolised at 0.5 h (in vitro [6]): 76.2%
metabolised at 1 h (in vitro [6]): 100%
metabolised at 2 h (in vitro [6]): 100%
metabolised at 3 h (in vitro [6]): 100%
metabolised at 4 h (in vitro [6]): 100%
metabolised at 5 h (in vitro [6]): 100%
metabolised at 20 h (in vitro [6]): 100%
SMILES: O=C1O[C@H]([C@@H](O)CO)C(O)=C1OP(=O)(O)O [ASMP, L-Ascorbate 2-phosphate]

SMILES: O=C1O[C@H]([C@@H](O)CO)C(O)=C1OP(=O)(O)OP(=O)(O)OP(=O)(O)O [ASTP, L-ascorbate 2-triphosphate]
metabolised at 0.25 h (in vitro [3]): 0%
metabolised at 0.5 h (in vitro [3]): 0%
metabolised at 1 h (in vitro [3]): 0%
metabolised at 2 h (in vitro [3]): 0%
metabolised at 3 h (in vitro [3]): 0.4%
metabolised at 4 h (in vitro [3]): 0.8%
metabolised at 8 h (in vitro [3]): 3.5%
metabolised at 20 h (in vitro [3]): 8.5%
stability to oxidation compared with ASMP (physchem): more stable to oxidation than ASMP
Stability (% Remaining) when reacted with aqueous hydrogen peroxide (physchem; 336 h): 55.2%
remaining at 0.25 h (physchem): 98.6%
remaining at 1 h (physchem): 98.3%
remaining at 24 h (physchem): 96.7%
remaining at 72 h (physchem): 87.6%
remaining at 144 h (physchem): 83.3%
remaining at 192 h (physchem): 77%
remaining at 336 h (physchem): 55%
degraded at 0.25 h [4, 9]: 0%
degraded at 0.5 h [4, 9]: 0%
degraded at 1 h [4, 9]: 0%
degraded at 2 h [4, 9]: 0%
degraded at 3 h [4, 9]: 0%
degraded at 4 h [4, 9]: 0%
degraded at 8 h [4, 9]: 0%
degraded at 20 h [4, 9]: 0%
degraded at 0.25 h [4, 10]: 0%
degraded at 0.5 h [4, 10]: 0%
degraded at 1 h [4, 10]: 0%
degraded at 2 h [4, 10]: 0%
degraded at 3 h [4, 10]: 0%
degraded at 4 h [4, 10]: 0%
degraded at 5 h [4, 10]: 0%
degraded at 20 h [4, 10]: 0%
time required for 95% hydrolysis [5]: 10 to 20 h
metabolised at 0.25 h (in vitro [6]): 0%
metabolised at 0.5 h (in vitro [6]): 1.2%
metabolised at 1 h (in vitro [6]): 3.5%
metabolised at 2 h (in vitro [6]): 29.6%
metabolised at 3 h (in vitro [6]): 65.8%
metabolised at 4 h (in vitro [6]): 86.9%
metabolised at 5 h (in vitro [6]): 93.1%
metabolised at 20 h (in vitro [6]): 95%
stabilization of L-ascorbate against autoxidation by the substance [7]: L-ascorbate is stabilized against autoxidation by ASTP

SMILES: O.O.O=C1O[C@H]([C@@H](O)CO)C([O-])=C1OP(=O)([O-])OP(=O)([O-])OP(=O)([O-])O.[Na+].[Na+].[Na+].[Na+] [L-ascorbate 2-tri-PO4, purified, tetrasodium L-ascorbate 2-triphosphate dihydrate]
growth rate (mean body weight) compared with group fed equivalent L-ascorbic acid (guinea pigs [8]): grew at a rate equal to that of the group fed an equivalent amount of L-ascorbic acid

time to destruction by hydrogen peroxide (physchem; pH 7, 25° C.): destroyed in less than one hour
remaining at 0.25 h (physchem): 56.9%
remaining at 1 h (physchem): 0%
remaining at 24 h (physchem): 0%
remaining at 72 h (physchem): 0%
remaining at 144 h (physchem): 0%
remaining at 192 h (physchem): 0%
remaining at 336 h (physchem): 0%
SMILES: O=C1O[C@H]([C@@H](O)CO)C(O)=C1O [Parent Compd, L-ascorbic acid]
